CC1=NN(c2ccccc2)C(=O)C1
solubility (mole fraction)
Settings	283.15 K	288.15 K	293.15 K	298.15 K	303.15 K	308.15 K	313.15 K	318.15 K	323.15 K	328.15 K
in 1,2-dichloroethane	0.0262	0.0304	0.0358	0.0417	0.0496	0.058	0.0676	0.0767	0.089	–
in 2-butanone	0.02	0.024	0.0313	0.0372	0.0437	0.0557	0.0678	0.081	0.121	–
in MIBK	0.0107	0.0138	0.0198	0.0243	0.0311	0.0365	0.0414	0.0495	0.0609	–
in dimethyl carbonate	0.0118	0.0138	0.0166	0.0201	0.0257	0.0316	0.0384	0.0458	0.0573	–
in ethyl lactate	0.0293	0.0319	0.0352	0.0392	0.0424	0.0486	0.0531	0.0594	0.0735	–
in isobutyl acetate	–	0.0109	0.0123	0.0142	0.0162	0.0192	0.0229	0.0268	0.0309	0.0367
in isopentanol	0.0191	0.021	0.023	0.0261	0.0282	0.0312	0.0353	0.0403	0.0466	–
in isopropyl acetate	0.00972	0.0117	0.0141	0.0162	0.0187	0.0223	0.0265	0.032	0.036	–
in methyl acetate	0.0161	0.0182	0.0201	0.0237	0.0266	0.0299	0.0349	0.0422	0.0477	–
in n-butyl acetate	0.0124	0.0142	0.0164	0.0195	0.0227	0.0265	0.0305	0.037	0.0423	–
in n-hexane	0.000173	0.000226	0.000394	0.00052	0.000662	0.000963	0.00136	0.00172	0.00211	–
in n-propyl acetate	0.0142	0.0169	0.0197	0.0228	0.0276	0.0318	0.0384	0.0451	0.0551	–

Reference: BigSolDB 2.1
